14 compounds from patent US20210070748A1, “INHIBITORS OF BRUTONS TYROSINE KINASE” (Pharmacyclics LLC, priority 2015, published 2021) can be followed below.

Some results are limits rather than exact numbers.

Holding throughout (format): biochemical
For one assay, the target named is EGFR (Homo sapiens, UniProt P00533). As to the kind of experiment: Inhibition of a panel of kinases, in vitro HotSpot kinase assay: EGFR. Conditions: D-compounds panel data; 1 μM ATP. The protocol: (§1) The degree of inhibition of a panel of kinases is determined using the in vitro HotSpot kinase assay (purified enzymes, ^33P-ATP, an appropriate substrate and 1 μM ATP).
Chain of EGFR (P00533 25-1210): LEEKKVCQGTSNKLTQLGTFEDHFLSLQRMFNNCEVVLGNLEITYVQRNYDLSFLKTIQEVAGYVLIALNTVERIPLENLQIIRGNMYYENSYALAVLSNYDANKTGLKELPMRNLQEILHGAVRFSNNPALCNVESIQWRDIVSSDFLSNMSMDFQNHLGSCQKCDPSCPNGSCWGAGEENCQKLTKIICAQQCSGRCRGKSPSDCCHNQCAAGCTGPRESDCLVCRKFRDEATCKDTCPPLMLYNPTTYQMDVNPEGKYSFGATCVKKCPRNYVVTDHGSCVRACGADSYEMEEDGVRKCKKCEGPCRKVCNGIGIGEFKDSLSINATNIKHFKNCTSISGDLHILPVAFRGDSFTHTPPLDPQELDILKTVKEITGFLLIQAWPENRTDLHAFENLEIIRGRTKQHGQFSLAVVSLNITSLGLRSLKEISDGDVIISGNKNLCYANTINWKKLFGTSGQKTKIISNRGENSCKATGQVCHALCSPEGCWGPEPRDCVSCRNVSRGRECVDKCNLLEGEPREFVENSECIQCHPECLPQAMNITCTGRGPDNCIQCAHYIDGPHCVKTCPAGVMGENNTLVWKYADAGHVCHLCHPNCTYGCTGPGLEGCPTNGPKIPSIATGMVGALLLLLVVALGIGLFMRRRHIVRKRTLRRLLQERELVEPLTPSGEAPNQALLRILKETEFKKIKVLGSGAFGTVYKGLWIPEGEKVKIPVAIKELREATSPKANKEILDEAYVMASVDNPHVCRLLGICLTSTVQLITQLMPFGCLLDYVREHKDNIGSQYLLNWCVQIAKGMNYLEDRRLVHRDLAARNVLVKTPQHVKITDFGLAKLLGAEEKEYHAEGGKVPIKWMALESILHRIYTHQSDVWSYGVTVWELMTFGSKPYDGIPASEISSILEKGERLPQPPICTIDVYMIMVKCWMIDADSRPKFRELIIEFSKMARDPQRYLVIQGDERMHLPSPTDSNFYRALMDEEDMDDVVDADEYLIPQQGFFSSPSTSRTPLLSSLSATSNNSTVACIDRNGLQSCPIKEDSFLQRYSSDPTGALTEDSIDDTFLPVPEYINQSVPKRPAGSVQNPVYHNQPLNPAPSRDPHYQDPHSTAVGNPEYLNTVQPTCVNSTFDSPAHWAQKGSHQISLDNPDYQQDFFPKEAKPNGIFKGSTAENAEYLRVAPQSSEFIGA

For the next assay, the target named is T1, BTK-WT (Homo sapiens, UniProt Q06187).
T1 construct: purified from insect cells as a full-length construct containing an N-terminal 6X-His tag; His6 (N); made in house; host or cells: insect cells (baculovirus Sf21 in Method B)
T1 sequence (Q06187 whole entry): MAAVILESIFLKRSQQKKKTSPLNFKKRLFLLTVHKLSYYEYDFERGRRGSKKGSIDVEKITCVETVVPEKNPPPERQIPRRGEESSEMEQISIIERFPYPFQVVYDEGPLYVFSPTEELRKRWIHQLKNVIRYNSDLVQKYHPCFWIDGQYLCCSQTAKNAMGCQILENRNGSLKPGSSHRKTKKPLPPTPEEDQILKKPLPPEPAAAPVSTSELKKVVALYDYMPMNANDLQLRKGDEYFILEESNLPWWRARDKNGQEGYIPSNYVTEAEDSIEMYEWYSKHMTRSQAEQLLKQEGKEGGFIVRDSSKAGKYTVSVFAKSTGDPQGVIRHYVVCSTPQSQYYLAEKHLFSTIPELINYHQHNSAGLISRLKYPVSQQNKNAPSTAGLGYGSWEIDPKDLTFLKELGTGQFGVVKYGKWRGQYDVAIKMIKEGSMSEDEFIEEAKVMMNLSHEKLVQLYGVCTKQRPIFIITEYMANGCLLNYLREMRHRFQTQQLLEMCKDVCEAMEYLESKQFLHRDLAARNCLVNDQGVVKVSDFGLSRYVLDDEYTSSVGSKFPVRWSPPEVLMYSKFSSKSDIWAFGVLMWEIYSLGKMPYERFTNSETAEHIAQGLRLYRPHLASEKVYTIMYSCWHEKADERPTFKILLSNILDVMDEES
As to the kind of experiment: Btk in vitro inhibitory activity (one of Method A TR-FRET, Method B electrophoretic mobility shift, Method C radiometric filter binding). Conditions: D-compounds panel data; read-out: IC50 BTK-WT.

In the next assay the target is LCK (Homo sapiens, UniProt P06239). The assay can be described thus: Inhibition of a panel of kinases, in vitro HotSpot kinase assay: LCK. The following applies: D-compounds panel data; 1 μM ATP; read-out: IC50 LCK.
Chain of LCK (P06239 whole entry): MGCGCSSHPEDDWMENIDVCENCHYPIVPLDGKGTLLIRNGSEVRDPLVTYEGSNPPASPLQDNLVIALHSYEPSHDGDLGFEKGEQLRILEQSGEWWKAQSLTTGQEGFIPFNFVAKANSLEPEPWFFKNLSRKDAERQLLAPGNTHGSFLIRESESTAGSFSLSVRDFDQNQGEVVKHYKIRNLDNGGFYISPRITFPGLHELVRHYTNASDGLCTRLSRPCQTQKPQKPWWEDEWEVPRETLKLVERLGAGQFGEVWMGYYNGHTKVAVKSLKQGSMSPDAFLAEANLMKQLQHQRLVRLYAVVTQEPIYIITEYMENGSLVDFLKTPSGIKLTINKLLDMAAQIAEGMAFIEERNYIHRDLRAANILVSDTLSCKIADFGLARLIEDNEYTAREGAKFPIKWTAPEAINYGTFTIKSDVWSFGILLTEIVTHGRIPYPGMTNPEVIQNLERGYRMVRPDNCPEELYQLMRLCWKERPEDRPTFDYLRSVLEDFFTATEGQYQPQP
A further assay deals with T2, ITK (Homo sapiens, UniProt Q08881).
T2 sequence (Q08881 1-620): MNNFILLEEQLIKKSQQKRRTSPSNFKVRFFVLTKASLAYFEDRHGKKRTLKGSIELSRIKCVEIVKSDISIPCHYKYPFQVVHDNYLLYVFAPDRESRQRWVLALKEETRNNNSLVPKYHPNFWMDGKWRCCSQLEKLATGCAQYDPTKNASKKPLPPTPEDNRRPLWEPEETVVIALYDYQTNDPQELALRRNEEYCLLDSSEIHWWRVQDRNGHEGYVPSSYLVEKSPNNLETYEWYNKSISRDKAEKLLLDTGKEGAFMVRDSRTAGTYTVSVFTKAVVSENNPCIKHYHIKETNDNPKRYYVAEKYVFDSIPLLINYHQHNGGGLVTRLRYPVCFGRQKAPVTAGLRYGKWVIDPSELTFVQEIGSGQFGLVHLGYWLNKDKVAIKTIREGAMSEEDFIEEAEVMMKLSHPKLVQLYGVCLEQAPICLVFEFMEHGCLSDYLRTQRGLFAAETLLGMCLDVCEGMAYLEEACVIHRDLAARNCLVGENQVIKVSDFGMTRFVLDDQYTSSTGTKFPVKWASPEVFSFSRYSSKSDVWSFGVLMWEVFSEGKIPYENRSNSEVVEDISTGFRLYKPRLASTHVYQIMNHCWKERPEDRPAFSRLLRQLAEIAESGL
As to the kind of experiment: Inhibition of a panel of kinases, in vitro HotSpot kinase assay: ITK. Conditions: D-compounds panel data; 1 μM ATP. The protocol:
as §1

For the compound `C[C@@H]1[C@H](NC(=O)c2ccc(C3CC3)cc2F)CCCN1c1cnc(C(N)=O)c(Nc2ccc(S(=O)(=O)N3CCN(C)CC3)cc2)n1` [Example D-130, 5-[(2R,3R)-3-(4-cyclopropyl-2-fluorobenzamido)-2-methylpiperidin-1-yl]-3-({4-[(4-methylpiperazin-1-yl)sulfonyl]phenyl}amino)pyrazine-2-carboxamide], the IC50 against EGFR is 1000 to 10000 nM; at BTK-WT, not above 10 nM; at LCK it was 1000 to 10000 nM; on ITK, 100 to 1000 nM.

As for `C[C@@H]1[C@H](NC(=O)c2ccc(C3CC3)cc2)CCCN1c1cnc(C(N)=O)c(Nc2ccc(N3CCN(C)CC3)c(F)c2)n1` [Example D-146, 5-[(2R,3R)-3-(4-cyclopropylbenzamido)-2-methylpiperidin-1-yl]-3-{[3-fluoro-4-(4-methylpiperazin-1-yl)phenyl]amino}pyrazine-2-carboxamide], the IC50 against EGFR is 100 to 1000 nM; at BTK-WT, not above 10 nM; on LCK, 10 to 100 nM; on ITK, 10 to 100 nM.

In the case of `Cc1cc(Nc2nc(N3CCC[C@@H](n4ccc5cc(C6CC6)ccc5c4=O)C3)cnc2C(N)=O)sn1` [Example D-166, 5-[(3R)-3-(6-cyclopropyl-1-oxo-1,2-dihydroisoquinolin-2-yl)piperidin-1-yl]-3-[(3-methyl-1,2-thiazol-5-yl)amino]pyrazine-2-carboxamide], the IC50 against EGFR is more than 10000 nM; on BTK-WT, not above 10 nM; at LCK, more than 10000 nM; on ITK it was more than 10000 nM.

For the compound `C[C@@H]1[C@H](NC(=O)N(C)C)CCCN1c1cnc(C(N)=O)c(Nc2ccc(OC3CCN(C4CCCC4)CC3)cc2)n1` [Example D-102, 3-({4-[(1-cyclopentylpiperidin-4-yl)oxy]phenyl}amino)-5-[(2R,3R)-3-[(dimethylcarbamoyl)amino]-2-methylpiperidin-1-yl]pyrazine-2-carboxamide], the IC50 against EGFR was 100 to 1000 nM; on BTK-WT, not above 10 nM; on LCK, 10 to 100 nM; against ITK, 10 to 100 nM.

Take `Cc1cc(Nc2nc(N3CCCC(c4ncc(-c5ccccc5)[nH]4)C3)cnc2C(N)=O)sn1` [Example D-164, 3-[(3-methyl-1,2-thiazol-5-yl)amino]-5-[3-(4-phenyl-3H-imidazol-2-yl)piperidin-1-yl]pyrazine-2-carboxamide]: the IC50 on EGFR lay in the range of 100 to 1000 nM; at BTK-WT, 10 to 100 nM; at LCK it was 100 to 1000 nM; against ITK it was 1000 to 10000 nM.

On to `CN(C)c1ccc2c(c1)CCN([C@@H]1CCCN(c3cnc(C(N)=O)c(Nc4cnn(C)c4)n3)C1)C2=O` [Example D-156, 5-[(3R)-3-[6-(dimethylamino)-1-oxo-1,2,3,4-tetrahydroisoquinolin-2-yl]piperidin-1-yl]-3-[(1-methyl-1H-pyrazol-4-yl)amino]pyrazine-2-carboxamide], for which the concentration for half-maximal inhibition (IC50) at EGFR was more than 10000 nM; at BTK-WT, not above 10 nM; on LCK, 1000 to 10000 nM; against ITK, 100 to 1000 nM.

In the case of `C[C@@H]1[C@H](NC(=O)N(C)C)CCCN1c1cnc(C(N)=O)c(Nc2cc(C3CCN(C4CCCC4)CC3)ns2)n1` [Example D-163, 3-{[3-(1-cyclopentylpiperidin-4-yl)-1,2-thiazol-5-yl]amino}-5-[(2R,3R)-3-[(dimethylcarbamoyl)amino]-2-methylpiperidin-1-yl]pyrazine-2-carboxamide], the IC50 on EGFR was 100 to 1000 nM; on BTK-WT, not above 10 nM; on LCK it was less than 10 nM; on ITK, 10 to 100 nM.

For the compound `C[C@@H]1[C@H](NC(=O)c2ccc(C3CC3)cc2)CCCN1c1cnc(C(N)=O)c(Nc2ccc(N3CCC4(CC3)COC4)cc2)n1` [Example D-99, 5-[(2R,3R)-3-(4-cyclopropylbenzamido)-2-methylpiperidin-1-yl]-3-[(4-{2-oxa-7-azaspiro[3.5]nonan-7-yl}phenyl)amino]pyrazine-2-carboxamide], the IC50 against EGFR is 1000 to 10000 nM; on BTK-WT, not above 10 nM; at LCK, 100 to 1000 nM; against ITK it was 100 to 1000 nM.

In the case of `C[C@H]1CC[C@@H](NC(=O)c2ccc(C3CC3)cc2)CN1c1cnc(C(N)=O)c(Nc2ccc(N3CCN(C)CC3)cc2)n1` [Example D-154, 5-[(2S,5R)-5-(4-cyclopropylbenzamido)-2-methylpiperidin-1-yl]-3-{[4-(4-methylpiperazin-1-yl)phenyl]amino}pyrazine-2-carboxamide], the IC50 at EGFR is more than 10000 nM; on BTK-WT, not above 10 nM; on LCK it was 100 to 1000 nM; on ITK, 1000 to 10000 nM.

With `C[C@H]1CC[C@@H](NC(=O)N(C)C)CN1c1cnc(C(N)=O)c(Nc2cnn(C)c2)n1` [Example D-152, 5-[(2S,5R)-5-[(dimethylcarbamoyl)amino]-2-methylpiperidin-1-yl]-3-[(1-methyl-1H-pyrazol-4-yl)amino]pyrazine-2-carboxamide], the IC50 was 1000 to 10000 nM on EGFR, 10 to 100 nM on BTK-WT, 1000 to 10000 nM at LCK and 1000 to 10000 nM on ITK.

Consider `C[C@@H]1[C@H](NC(=O)c2ccc(C3CC3)cc2F)CCCN1c1cnc(C(N)=O)c(Nc2ccc3cccnc3c2)n1` [Example D-124, 5-[(2R,3R)-3-(4-cyclopropyl-2-fluorobenzamido)-2-methylpiperidin-1-yl]-3-[(quinolin-7-yl)amino]pyrazine-2-carboxamide], for which the IC50 at EGFR is more than 10000 nM; on BTK-WT it was 10 to 100 nM; at LCK, more than 10000 nM; against ITK, more than 10000 nM.

Consider `C[C@@H]1[C@H](NC(=O)c2ccc(C(C)(C)N(C)C)cc2)CCCN1c1cnc(C(N)=O)c(Nc2cnn(C)c2)n1` [Example D-108, 5-[(2R,3R)-3-{4-[2-(dimethylamino)propan-2-yl]benzamido}-2-methylpiperidin-1-yl]-3-[(1-methyl-1H-pyrazol-4-yl)amino]pyrazine-2-carboxamide], for which the IC50 is 1000 to 10000 nM on EGFR, not above 10 nM on BTK-WT, 100 to 1000 nM on LCK and 100 to 1000 nM against ITK.

For the compound `C[C@@H]1CC[C@H](NC(=O)c2ccc(C3CC3)cc2)CN1c1cnc(C(N)=O)c(Nc2ccc(N3CCN(C)CC3)cc2)n1` [Example D-153, 5-[(2R,5S)-5-(4-cyclopropylbenzamido)-2-methylpiperidin-1-yl]-3-{[4-(4-methylpiperazin-1-yl)phenyl]amino}pyrazine-2-carboxamide], the IC50 at EGFR is 100 to 1000 nM; on BTK-WT, not above 10 nM; at LCK it was 10 to 100 nM; on ITK, 10 to 100 nM.

Take `CN1CCN(c2ccc(Nc3nc(N4CCC[C@@H](n5ccc6cc(C7CC7)ccc6c5=O)C4)cnc3C(N)=O)cc2)CC1` [Example D-165, 5-[(3R)-3-(6-cyclopropyl-1-oxo-1,2-dihydroisoquinolin-2-yl)piperidin-1-yl]-3-{[4-(4-methylpiperazin-1-yl)phenyl]amino}pyrazine-2-carboxamide]: the IC50 on EGFR is more than 10000 nM; on BTK-WT, not above 10 nM; at LCK it was 100 to 1000 nM; against ITK, 100 to 1000 nM.
